Test results taken from patent US20190284129A1, “LIPID COMPOUNDS AND COMPOSITIONS AND THEIR OPTHALMIC USE” (BIOZEP AS, priority 2015, published 2019).
Several values for one entry are separate records, joined by “and”; a condition that tells them apart may be missing. Identical values can stand only once.

Assays:
Assay type in all cases: cell-based
[1] = target: T1, human PPARalpha receptor (Homo sapiens, UniProt Q07869); test: cellular GAL4 reporter gene assay (M1H) in HEK293 cells, PPARalpha; conditions: agonist mode; for Efficacy vs. Fenofibric Acid / Efficacy vs. GW7647: HEK293; for EC50: HEK293, GAL4 reporter
T1 construct: expressed in transfected cells; host or cells: HEK293 (DSMZ ACC 305)
T1 sequence (Q07869 239-466 limits assumed): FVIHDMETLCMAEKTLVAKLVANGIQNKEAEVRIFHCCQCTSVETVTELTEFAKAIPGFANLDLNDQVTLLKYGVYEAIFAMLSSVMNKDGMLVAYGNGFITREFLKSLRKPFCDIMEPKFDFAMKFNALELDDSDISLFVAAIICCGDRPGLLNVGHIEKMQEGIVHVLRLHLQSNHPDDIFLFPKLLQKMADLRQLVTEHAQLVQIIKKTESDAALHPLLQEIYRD
Experimental: The compounds BIZ-102 (Example 2), BIZ-103 (Example 5) and BIZ-106 were tested at the human PPARalpha receptor in a cellular GAL4 Reporter gene assay. The assay was run in agonist and antagonist mode to detect agonistic as well as antagonistic activities of the tested compounds.
Performance of the GAL4 cellular reporter assay:
Day 1: Cells were seeded in 96 well plates in plating medium (MEM with serum), incubation overnight at 37° C., 5% CO2.
Day 2: Removal of plating medium
Addition of PEI-based transfection agent
Incubation for 4-6 hours at 37° C., 5% CO2
Addition of assay medium (MEM with serum)
Addition of compounds (dilution series was generated in MEM with serum)
Incubation overnight at 37° C., 5% CO2
Day 3: Removal of assay medium (16-20 hours after compound addition)
Addition of Passive Lysis Buffer (Promega)
15 mins incubation at room temperature
Addition of luciferase buffers and measurement in a dual-flash procedure
(§1) The assays were done in HEK293 cells (DSMZ ACC 305). The plasmids used in the GAL4 assay system were derivatives of Stratagene's M2H plasmids: the reporter plasmid pFR-Luc (containing a synthetic promoter with five tandem repeats of the yeast GAL4 binding sites that control expression of the Photinus pyralis (American firefly) luciferase gene), and pCMV-BD (for fusions of nuclear receptor ligand binding domains to the DNA-binding domain of the yeast protein GAL4). In order to improve experimental accuracy, a second reporter—Renilla reniformis luciferase, driven by a constitutive promoter—was included as an internal control. Using the control reporter (Renilla Luciferase) allowed corrections for variations in experimental handling, e.g. transfection efficacy, cell viability, pipetting errors, cell lysis efficiency and assay efficiency.
Primary read out of the assays was loaded into PhAST (Phenex Assay and Screening Tool) and checked for assay quality (generation of SB and Zprime values). […] Within PhAST there are two measured and one calculated data layers:
LAYER1 (measured)—contains the activity values of the firefly luciferase activities and is a direct measure for modulation of the cofactor binding properties of the Nuclear Receptors by the tested compounds.
LAYER2 (measured)—contains the activity values of the renilla luciferase activities and is used as normalisation layer. As the renilla luciferase is expressed under control of the constitutively active CMV promoter, moderate well-to-well differences can be used to correct for variations in experimental handling.
LAYER3 (calculated)—is calculated according to the following equation: […]
1000*Firefly luciferase value/Renilla luciferase value
These normalised values are, as well as LAYER1, a measure for the modulation of the cofactor binding properties of the nuclear receptors by the tested compounds.

[2] = target: T2, human PPARbeta/delta (Homo sapiens, UniProt Q03181); test: cellular GAL4 reporter gene assay, agonist mode, PPARbeta/delta
T2 construct: expressed in transfected cells; host or cells: HEK293 (DSMZ ACC 305)
T2 sequence (Q03181 211-439 limits assumed): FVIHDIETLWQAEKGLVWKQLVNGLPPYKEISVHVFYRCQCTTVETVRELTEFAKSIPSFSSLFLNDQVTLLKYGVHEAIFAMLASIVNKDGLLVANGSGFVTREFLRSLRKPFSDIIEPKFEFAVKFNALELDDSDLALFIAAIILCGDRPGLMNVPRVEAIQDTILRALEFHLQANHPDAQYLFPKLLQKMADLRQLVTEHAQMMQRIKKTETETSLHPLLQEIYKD
Source text: as §1, with “M2H” left out, “reporter-Renilla” for “reporter—Renilla”, “promoter-was” for “promoter—was”, “efficiency. […] The compounds BIZ-102 and BIZ-103 were tested at the human PPARbeta/delta and PPARgamma receptors using the same cellular GAL4 Reporter gene assays as in Example 6. The assays were run in agonist mode to detect agonistic activities of the tested compounds.” for “efficiency.”

[3] = target: T3, human PPARgamma (Homo sapiens, UniProt P37231); test: cellular GAL4 reporter gene assay, agonist mode, PPARgamma
T3 construct: expressed in transfected cells; host or cells: HEK293 (DSMZ ACC 305)
T3 sequence (P37231 238-503 limits assumed): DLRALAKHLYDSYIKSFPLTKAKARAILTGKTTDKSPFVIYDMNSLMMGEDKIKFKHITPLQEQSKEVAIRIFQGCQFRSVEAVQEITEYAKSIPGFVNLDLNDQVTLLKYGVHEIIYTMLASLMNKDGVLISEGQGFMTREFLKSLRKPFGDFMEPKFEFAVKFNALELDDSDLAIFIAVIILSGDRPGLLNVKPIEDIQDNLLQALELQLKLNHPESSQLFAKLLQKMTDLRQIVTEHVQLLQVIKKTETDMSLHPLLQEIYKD
Source text: as §1, with “M2H” left out, “reporter-Renilla” for “reporter—Renilla”, “promoter-was” for “promoter—was”, “efficiency. […] The compounds BIZ-102 and BIZ-103 were tested at the human PPARbeta/delta and PPARgamma receptors using the same cellular GAL4 Reporter gene assays as in Example 6. The assays were run in agonist mode to detect agonistic activities of the tested compounds.” for “efficiency.”

[4] = test system: NF-κB pathway; test: NF-κB luciferase reporter assay in NF-κB Reporter-HEK293 cells, TNFa stimulated; conditions: FIG. 5
Source text: The NF-κB reporter (luc)-HEK293 cell line is designed for monitoring the nuclear factor Kappa B (NF-κB) signal transduction pathways. It contains a firefly luciferase gene driven by four copies of NF-κB response element located upstream of the minimal TATA promoter. After activation by pro-inflammatory cytokines or stimulants of lymphokine receptors, endogenous NF-κB transcription factors bind to the DNA response elements, inducing transcription of the luciferase reporter gene.
NF-κB Reporter-HEK293 cells were cultured in MEM medium with 10% FBS, 1% non-essential amino acids, 1 mM Na-pyruvate, 1% Penn-strep, and 100 µg/ml of Hygromycin B.
To perform the NF-κB luciferase reporter assay, NF-κB Reporter-HEK293 cells were seeded at 40,000 cells per well into white clear-bottom 96-well microplate in 45 μl of growth medium without Hygromycin B. Cells were incubated at 37° C. and 5% CO2 overnight to allow them to recover and reattach. The following day a series of dilutions of compounds were made in assay medium (MEM medium with 0.5% FBS, 1% non-essential amino acids, 1 mM Na-pyruvate, 1% Penn-strep). The medium was removed from the wells and 45 μl of diluted compound was added to the cells. Assay medium with DMSO was added to the untreated control wells and cell-free control wells. The final concentration of DMSO was 0.25%. The cells were incubated overnight at 37° C. in CO2 incubator. […]
After treatment, cells were then lysed and a luciferase assay was performed using the ONE-Step luciferase assay system. […] Luminescence was measured using a luminometer (BioTek Synergy™ 2 microplate reader).
Reporter assays were performed in triplicate at each concentration. The luminescence intensity data were analyzed using the computer software, Graphpad Prism. In the absence of the compound, the luminescence intensity (Lt) in each data set was defined as 100%. In the absence of cells, the luminescence intensity (Lb) in each data set was defined as 0%. The percent luminescence in the presence of each compound was calculated according to the following equation: % Luminescence=(L−Lb)/(Lt−Lb), where L=the luminescence intensity in the presence of the compound, Lb=the luminescence intensity in the absence of cells, and Lt=the luminescence intensity in the absence of the compound. The values of % luminescence versus a series of compound concentrations were then plotted using non-linear regression analysis of a Sigmoidal dose-response curve generated with the equation Y=B+(T B)/1+10^((Log EC50-X)×Hill Slope), where Y=percent luminescence, B=minimum percent luminescence, T=maximum percent luminescence, X=logarithm of compound and Hill Slope=slope factor or Hill coefficient. The IC50 value was determined by the concentration causing a half-maximal percent activity.

[5] = test system: ARPE-19 cells; test: oxidative stress (tert-butyl hydroperoxide) cytolysis assay in ARPE-19 retinal pigment epithelial cells; conditions: fenofibric acid 25 μM, BIZ-101 10 μM
Experimental: In order to evaluate the potential of BIZ-101 to protective the eye from oxidative stress damage the compound was tested in a cell based assay. Oxidative stress was induced in an ARPE-19 cell line using tert-butyl hydroperoxide at different concentrations. The cellular viability was kinetically monitored and measured by analysing the plasma membrane integrity based on the incorporation of a non-permeant and fluorescent DNA intercalating agent that selectively stain cytolytic cells with comprised plasma membranes.
(§2) The ARPE-19 cell line was seeded and cultured in DMEM-F12 medium+10% SVF for 24 hrs in a 96 well plate. Cells were pre-treated or not with either fenofibric acid (25 μM) or compound BIZ-101 (10 μM) during this 24 hr period. After 24 hrs, the different concentrations of t-butyl hydroperoxide were added in the presence of a fluorescent DNA intercalating agent for the following monitoring. Live content time-lapse imaging was performed with a sampling rate of 1 image every 2 hr over a 96 hrs period. The number of fluorescent/cytolytic cells were counted and reported during the experiment. The treatment conditions were tested in one experiment session in a triplicate format.
Fenofibric acid was used at 25 μM and was ordered from Sigma Aldrich. The day of the pre-treatment, a 25 mM stock solution of fenofibric acid was prepared in DMSO and diluted in the complete culture medium at 25 μM. 100 μL of this solution or 100 μL of complete culture medium+0.1% DMSO replaced the 100 μL of the complete culture medium already present in the well. The day of the treatment with t-butyl hydroperoxide, a 2 times concentrated solution of fenofibric acid was freshly diluted in the complete culture medium and 50 μL of this solution or 50 μL of complete culture medium+0.2% DMSO were added to the 100 μL of the culture medium already present in the well.
Compound BIZ-101 was tested at a final concentration of 10 μM. A 10 mM predilution was prepared in DMSO from a 10 mM stock solution. The 10 mM solution of BIZ 101 was diluted in the complete culture medium at 10 μM. 100 μL, of this solution or 100 μL of the complete culture medium+0.1% DMSO replaced the 100 μL, of the complete culture medium already present in the well. The day of the treatment with t-butyl hydroperoxide, a 2 times concentrated solution of BIZ 101 was freshly diluted in the complete culture medium and 50 μL of this solution or 50 μL of complete culture medium+0.2% DMSO were added to the 100 μL of the culture medium already present in the well.
Preparation of the tert-butyl hydroperoxide [tBHP] solution: 0, 0.01 mM, 0.03 mM, 0.1 mM, 0.3 mM, 1 mM, 3 mM and 10 mM. A 4 times concentrated solution of tBHP was freshly diluted in the complete culture medium for each of the concentrations to be tested. 50 μL of the 4 times concentrated solution was added to the 150 μL of the cultured medium.
In order to evaluate the potential of BIZ-102 to protect the eye from oxidative stress damage the compound was tested in a cell based assay similar to Example 24 with the following changes. The oxidative stress in the ARPE-19 cell line was induced by using 3 different concentrations of tBHP: 10 μM, 30 μM and 100 μM and BIZ-102 was tested in 2 different concentrations: 1 μM and 10 μM.
as §2, with “with” for “with either fenofibric acid (25 μM) or”, “BIZ-102 (1 μM and 10” for “BIZ-101 (10”
Compound BIZ-102 was tested at a final concentration of 1 and 10 μM. […]

| Compound | Efficacy vs. Fenofibric Acid [1] [%] | Efficacy vs. GW7647 [1] [%] | EC50 [1] | further results |
| --- | --- | --- | --- | --- |
| CCCCCCCCCCCCCCSC(C)C(=O)O (centres unmarked) [BIZ-103] | 55 | 180 |  | EC50 [2]: 8.9 µM; PPARbeta/delta efficacy vs. GW501516 [2]: 18%; EC50 [3]: 1.6 µM; PPARgamma efficacy vs. Rosiglitazone [3]: 20% |
| CC/C=C\C/C=C\C/C=C\C/C=C\C/C=C\C/C=C\CC(CC)C(=O)O (centres unmarked) [BIZ-106, 2-ethyl (4Z,7Z,10Z,13Z,16Z,19Z)-docosa-4,11,10,13,16,19-hexaenoic Acid] | 25 | 80 | ~5 µM and 5 µM |  |
| CCCCC/C=C\C/C=C\C/C=C\C/C=C\CCCC(=O)O [BIZ-107] | 30 | 100 | ~26 µM and 26 µM |  |
| CC/C=C\C/C=C\C/C=C\C/C=C\C/C=C\CCCCOC(CC)C(=O)O (centres unmarked) [BIZ-110, 2-((5Z,8Z,11Z,14Z,17Z)-icosa-5,8,11,14,17-pentaen-1-yloxy) butanoic Acid] |  |  |  | dose dependence of inhibitory effect on the NF-κB pathway [4]: dose dependent; complete inhibition of the NF-κB pathway ([4]; at high concentration): completely inhibited |
| CC(C)(Oc1ccc(C(=O)c2ccc(Cl)cc2)cc1)C(=O)O [fenofibric acid, reference compound] |  |  | 10 to 18 µM | dose dependent cytotoxicity of tBHP ([5]; 6 hrs after addition of tBHP, 24 hr pre-treatment): slightly decreased; protective effects against tBHP cytotoxicity ([5]; 24 hrs after addition of t-BHP): more efficient |
